This is an account of results in US12459891B2, “1-[1-(4-benzyloxy-3,5-difluoro-benzoyl)-4-fluoro-pyrrolidine-2-carbonyl]-pyrrolidine-2-carbonitrile” (ACCURE THERAPEUTICS, S.L., priority 2020, dated 2025).

The structures appear in SMILES notation. Where two headings read alike, the source gives them in different places.

Data set [1] in a line: In vivo brain exposure (plasma and brain AUC). As to conditions: male, mouse, mice, 5 mg/kg, read-out: % BBB (brain exposure, plasma and brain AUC ratio). On the procedure:
For each compound, twenty-four adult male mice, aged 7-8 weeks on the day of experiment, were used for the study and were allocated randomly between the groups. The experiments were performed on 3 groups of animals as described in the table below:
After compound administration, terminal blood was performed at several time points after intraperitoneal (Comp. ex. 3) or oral administration (Ex. 1).
After transcardiac perfusion with phosphate buffered saline, brains were also collected. All the samples were stored at −80° C. until bioanalysis.
The plasma samples were thawed at room temperature (RT), and the samples were protein precipitated with a 2-fold volume of acetonitrile, containing 20 ng/mL phenacetin as an internal standard. The samples were mixed throughout, followed by centrifugation for 20 min at 2,200×g. The supernatants were diluted 1:1 with 150 mM phosphate buffered saline (pH 7.4) and pipetted onto UPLC 96-well plates to wait for the analysis. […]
Levels of the compounds of Comp. Ex. 3 and example 1 were quantified from mouse plasma and brain. Samples were analyzed using a fit-on-purpose bioanalytical method using a UPLC/QE-Orbitrap-Mass Spectroscopy.
The concentration (ng/mL) of the compounds along time was plotted and the area under the curve (AUC) in plasma and brain tissue was calculated using Graphpad Prism™ 5.0. The plasma to brain ratio was calculated as follows: […]

Data set [2] is described as follows: Plasma levels after oral administration. In kind it is in vivo.

On to `COc1cc(C(=O)N2CC(F)(F)C[C@H]2C(=O)N2CCC[C@H]2C#N)cc(OC)c1OCc1ccccc1` [Comp Ex. 3, (S)-1-((2S)-1-(4-(benzyloxy)-3,5-dimethoxybenzoyl)-4,4-difluoropyrrolidine-2-carbonyl)pyrrolidine-2-carbonitrile], for which the Kp in data set [1] (IP) was 0.21. For the same compound, in data set [2], the “Detected plasma levels of the drug (in words)” value is recorded as “very low”.
On to `N#C[C@@H]1CCCN1C(=O)[C@@H]1C[C@@H](F)CN1C(=O)c1cc(F)c(OCc2ccccc2)c(F)c1` [Example 1, (S)-1-((2S,4R)-1-(4-(benzyloxy)-3,5-difluorobenzoyl)-4-fluoropyrrolidine-2-carbonyl)pyrrolidine-2-carbonitrile], for which the Kp in data set [1] (PO) came out at 0.253.
